Values after ≈ are worked out from the molar mass of the structure shown.
How the values were obtained:
Streptococcus pyogenes [1] = experiment: Antibacterial activity against erythromycin-resistant Streptococcus pyogenes RE clinical isolate by broth microdilution method; assay type: functional
Salmonella typhimurium [2] = experiment: Antibacterial activity against Salmonella typhimurium TA98 by broth microdilution method; assay type: functional, Salmonella enterica subsp. enterica serovar Typhimurium; conditions: Salmonella enterica
Streptococcus pyogenes [3] = experiment: Antibacterial activity against erythromycin-susceptible Streptococcus pyogenes by broth microdilution method; assay type: functional
Salmonella typhimurium [4] = experiment: Antibacterial activity against Salmonella typhimurium TA102 by broth microdilution method; assay type: functional, Salmonella enterica subsp. enterica serovar Typhimurium; conditions: Salmonella enterica
Streptococcus pneumoniae [5] = experiment: Antibacterial activity against erythromycin-resistant Streptococcus pneumoniae A22072 expressing mef gene by broth microdilution method; assay type: functional
Streptococcus pneumoniae [6] = experiment: Antibacterial activity against erythromycin-resistant Streptococcus pneumoniae B1 expressing erm gene by broth microdilution method; assay type: functional
Streptococcus pneumoniae [7] = experiment: Antibacterial activity against erythromycin-resistant Streptococcus pneumoniae AB11 expressing erm and mef genes by broth microdilution method; assay type: functional
Streptococcus pneumoniae [8] = experiment: Antibacterial activity against erythromycin-susceptible Streptococcus pneumoniae ATCC 49619 by broth microdilution method; assay type: functional
Staphylococcus aureus [9] = experiment: Antibacterial activity against methicillin-susceptible Staphylococcus aureus ATCC 29213 by broth microdilution method; assay type: functional
Staphylococcus aureus [10] = experiment: Antibacterial activity against penicillin-resistant Staphylococcus aureus clinical isolate by broth microdilution method; assay type: functional
Staphylococcus aureus [11] = experiment: Antibacterial activity against erythromycin-susceptible Staphylococcus aureus ATCC 25923 by broth microdilution method; assay type: functional

CC[C@H]1OC(=O)[C@H](C)[C@@H](O[C@H]2C[C@@](C)(OC)[C@@H](OC(=O)NCCCCNC(=O)c3ccc(OC)cc3)[C@H](C)O2)[C@H](C)[C@@H](O[C@@H]2O[C@H](C)C[C@H](N(C)C)[C@H]2O)[C@](C)(O)C[C@@H](C)CN(C)[C@H](C)[C@@H](OC(=O)NCCc2ccccc2Cl)[C@]1(C)O
MIC (Streptococcus pyogenes [1]): 64 µg/mL (≈ 54.3 µM) | MIC (Salmonella typhimurium [2]): 2 µg/mL (≈ 1.7 µM) | MIC (Streptococcus pyogenes [3]): 16 µg/mL (≈ 13.6 µM) | MIC (Salmonella typhimurium [4]): 8 µg/mL (≈ 6.79 µM) | MIC (Streptococcus pneumoniae [5]): 0.5 µg/mL (≈ 0.424 µM) | MIC (Streptococcus pneumoniae [6]): 2 µg/mL (≈ 1.7 µM) | MIC (Streptococcus pneumoniae [7]): 8 µg/mL (≈ 6.79 µM) | MIC (Streptococcus pneumoniae [8]): 0.06 µg/mL (≈ 0.0509 µM) | MIC (Staphylococcus aureus [9]): 1 µg/mL (≈ 0.848 µM) | MIC (Staphylococcus aureus [10]): 4 µg/mL (≈ 3.39 µM) | MIC (Staphylococcus aureus [11]): 0.5 µg/mL (≈ 0.424 µM)

CC[C@H]1OC(=O)[C@H](C)[C@@H](O[C@H]2C[C@@](C)(OC)[C@@H](OC(=O)NCCNC(=O)c3ccc(OC)c(OC)c3)[C@H](C)O2)[C@H](C)[C@@H](O[C@@H]2O[C@H](C)C[C@H](N(C)C)[C@H]2O)[C@](C)(O)C[C@@H](C)CN(C)[C@H](C)[C@@H](OC(=O)NCCc2ccccc2)[C@]1(C)O
MIC (Streptococcus pyogenes [1]): 64 µg/mL (≈ 55.8 µM) | MIC (Salmonella typhimurium [2]): 8 µg/mL (≈ 6.98 µM) | MIC (Streptococcus pyogenes [3]): 32 µg/mL (≈ 27.9 µM) | MIC (Salmonella typhimurium [4]): 2 µg/mL (≈ 1.74 µM) | MIC (Streptococcus pneumoniae [5]): 0.5 µg/mL (≈ 0.436 µM) | MIC (Streptococcus pneumoniae [6]): 4 µg/mL (≈ 3.49 µM) | MIC (Streptococcus pneumoniae [7]): 16 µg/mL (≈ 14 µM) | MIC (Streptococcus pneumoniae [8]): 0.06 µg/mL (≈ 0.0523 µM) | MIC (Staphylococcus aureus [9]): 4 µg/mL (≈ 3.49 µM) | MIC (Staphylococcus aureus [10]): 4 µg/mL (≈ 3.49 µM) | MIC (Staphylococcus aureus [11]): 1 µg/mL (≈ 0.872 µM)

CC[C@H]1OC(=O)[C@H](C)[C@@H](O[C@H]2C[C@@](C)(OC)[C@@H](O)[C@H](C)O2)[C@H](C)[C@@H](O[C@@H]2O[C@H](C)C[C@H](N(C)C)[C@H]2O)[C@](C)(O)C[C@@H](C)CN(C)[C@H](C)[C@@H](O)[C@]1(C)O [AZITHROMYCIN]
MIC (Streptococcus pyogenes [1]): 8 µg/mL (≈ 10.7 µM) | MIC (Salmonella typhimurium [2]): 0.5 µg/mL (≈ 0.668 µM) | MIC (Streptococcus pyogenes [3]): 0.03 µg/mL (≈ 0.0401 µM) | MIC (Salmonella typhimurium [4]): 0.25 µg/mL (≈ 0.334 µM) | MIC (Streptococcus pneumoniae [5]): 4 µg/mL (≈ 5.34 µM) | MIC (Streptococcus pneumoniae [6]): 128 µg/mL (≈ 171 µM) | MIC (Streptococcus pneumoniae [7]): 256 µg/mL (≈ 342 µM) | MIC (Streptococcus pneumoniae [8]): 0.03 µg/mL (≈ 0.0401 µM) | MIC (Staphylococcus aureus [9]): 2 µg/mL (≈ 2.67 µM) | MIC (Staphylococcus aureus [10]): 0.5 µg/mL (≈ 0.668 µM) | MIC (Staphylococcus aureus [11]): 0.25 µg/mL (≈ 0.334 µM)

CC[C@H]1OC(=O)[C@H](C)[C@@H](O[C@H]2C[C@@](C)(OC)[C@@H](OC(=O)NCCCCNC(=O)c3ccc(OC)cc3)[C@H](C)O2)[C@H](C)[C@@H](O[C@@H]2O[C@H](C)C[C@H](N(C)C)[C@H]2O)[C@](C)(O)C[C@@H](C)CN(C)[C@H](C)[C@@H](OC(=O)NCCc2ccc(OC)cc2)[C@]1(C)O
MIC (Streptococcus pyogenes [1]): 64 µg/mL (≈ 54.5 µM) | MIC (Salmonella typhimurium [2]): 4 µg/mL (≈ 3.41 µM) | MIC (Streptococcus pyogenes [3]): 16 µg/mL (≈ 13.6 µM) | MIC (Salmonella typhimurium [4]): 0.5 µg/mL (≈ 0.426 µM) | MIC (Streptococcus pneumoniae [5]): 0.25 µg/mL (≈ 0.213 µM) | MIC (Streptococcus pneumoniae [6]): 2 µg/mL (≈ 1.7 µM) | MIC (Streptococcus pneumoniae [7]): 8 µg/mL (≈ 6.81 µM) | MIC (Streptococcus pneumoniae [8]): 0.06 µg/mL (≈ 0.0511 µM) | MIC (Staphylococcus aureus [9]): 1 µg/mL (≈ 0.851 µM) | MIC (Staphylococcus aureus [10]): 8 µg/mL (≈ 6.81 µM) | MIC (Staphylococcus aureus [11]): 1 µg/mL (≈ 0.851 µM)

CC[C@H]1OC(=O)[C@H](C)[C@@H](O[C@H]2C[C@@](C)(OC)[C@@H](OC(=O)NCCCCNC(=O)c3ccc(OC)cc3)[C@H](C)O2)[C@H](C)[C@@H](O[C@@H]2O[C@H](C)C[C@H](N(C)C)[C@H]2O)[C@](C)(O)C[C@@H](C)CN(C)[C@H](C)[C@@H](OC(=O)NCc2ccc(C)c(C)c2)[C@]1(C)O
MIC (Streptococcus pyogenes [1]): 64 µg/mL (≈ 55.2 µM) | MIC (Salmonella typhimurium [2]): 8 µg/mL (≈ 6.91 µM) | MIC (Streptococcus pyogenes [3]): 16 µg/mL (≈ 13.8 µM) | MIC (Salmonella typhimurium [4]): 1 µg/mL (≈ 0.863 µM) | MIC (Streptococcus pneumoniae [5]): 0.5 µg/mL (≈ 0.432 µM) | MIC (Streptococcus pneumoniae [6]): 4 µg/mL (≈ 3.45 µM) | MIC (Streptococcus pneumoniae [7]): 16 µg/mL (≈ 13.8 µM) | MIC (Streptococcus pneumoniae [8]): 0.12 µg/mL (≈ 0.104 µM) | MIC (Staphylococcus aureus [9]): 8 µg/mL (≈ 6.91 µM) | MIC (Staphylococcus aureus [10]): 4 µg/mL (≈ 3.45 µM) | MIC (Staphylococcus aureus [11]): 1 µg/mL (≈ 0.863 µM)

CC[C@H]1OC(=O)[C@H](C)[C@@H](O[C@H]2C[C@@](C)(OC)[C@@H](OC(=O)NCCCCNC(=O)c3ccc(OC)cc3)[C@H](C)O2)[C@H](C)[C@@H](O[C@@H]2O[C@H](C)C[C@H](N(C)C)[C@H]2O)[C@](C)(O)C[C@@H](C)CN(C)[C@H](C)[C@@H](OC(=O)NCc2ccccc2)[C@]1(C)O
MIC (Streptococcus pyogenes [1]): 64 µg/mL (≈ 56.6 µM) | MIC (Salmonella typhimurium [2]): 2 µg/mL (≈ 1.77 µM) | MIC (Streptococcus pyogenes [3]): 8 µg/mL (≈ 7.08 µM) | MIC (Salmonella typhimurium [4]): 0.12 µg/mL (≈ 0.106 µM) | MIC (Streptococcus pneumoniae [5]): 0.12 µg/mL (≈ 0.106 µM) | MIC (Streptococcus pneumoniae [6]): 2 µg/mL (≈ 1.77 µM) | MIC (Streptococcus pneumoniae [7]): 8 µg/mL (≈ 7.08 µM) | MIC (Streptococcus pneumoniae [8]): 0.03 µg/mL (≈ 0.0265 µM) | MIC (Staphylococcus aureus [9]): 4 µg/mL (≈ 3.54 µM) | MIC (Staphylococcus aureus [10]): 2 µg/mL (≈ 1.77 µM) | MIC (Staphylococcus aureus [11]): 0.5 µg/mL (≈ 0.442 µM)

CC[C@H]1OC(=O)[C@H](C)[C@@H](O[C@H]2C[C@@](C)(OC)[C@@H](OC(=O)NCCNC(=O)c3cc([N+](=O)[O-])cc([N+](=O)[O-])c3)[C@H](C)O2)[C@H](C)[C@@H](O[C@@H]2O[C@H](C)C[C@H](N(C)C)[C@H]2O)[C@](C)(O)C[C@@H](C)CN(C)[C@H](C)[C@@H](OC(=O)NCCc2ccccc2)[C@]1(C)O
MIC (Streptococcus pyogenes [1]): 64 µg/mL (≈ 54.4 µM) | MIC (Salmonella typhimurium [2]): 0.5 µg/mL (≈ 0.425 µM) | MIC (Streptococcus pyogenes [3]): 8 µg/mL (≈ 6.8 µM) | MIC (Salmonella typhimurium [4]): 2 µg/mL (≈ 1.7 µM) | MIC (Streptococcus pneumoniae [5]): 0.06 µg/mL (≈ 0.051 µM) | MIC (Streptococcus pneumoniae [6]): 0.25 µg/mL (≈ 0.213 µM) | MIC (Streptococcus pneumoniae [7]): 2 µg/mL (≈ 1.7 µM) | MIC (Streptococcus pneumoniae [8]): 0.06 µg/mL (≈ 0.051 µM) | MIC (Staphylococcus aureus [9]): 4 µg/mL (≈ 3.4 µM) | MIC (Staphylococcus aureus [10]): 4 µg/mL (≈ 3.4 µM) | MIC (Staphylococcus aureus [11]): 0.12 µg/mL (≈ 0.102 µM)

CC[C@H]1OC(=O)[C@H](C)[C@@H](O[C@H]2C[C@@](C)(OC)[C@@H](OC(=O)NNC(=O)c3ccccc3OC)[C@H](C)O2)[C@H](C)[C@@H](O[C@@H]2O[C@H](C)C[C@H](N(C)C)[C@H]2O)[C@](C)(O)C[C@@H](C)CN(C)[C@H](C)[C@@H](OC(=O)NCCc2ccccc2)[C@]1(C)O
MIC (Streptococcus pyogenes [1]): 64 µg/mL (≈ 58.8 µM) | MIC (Salmonella typhimurium [2]): 16 µg/mL (≈ 14.7 µM) | MIC (Streptococcus pyogenes [3]): 32 µg/mL (≈ 29.4 µM) | MIC (Salmonella typhimurium [4]): 8 µg/mL (≈ 7.35 µM) | MIC (Streptococcus pneumoniae [5]): 2 µg/mL (≈ 1.84 µM) | MIC (Streptococcus pneumoniae [6]): 8 µg/mL (≈ 7.35 µM) | MIC (Streptococcus pneumoniae [7]): 16 µg/mL (≈ 14.7 µM) | MIC (Streptococcus pneumoniae [8]): 0.06 µg/mL (≈ 0.0551 µM) | MIC (Staphylococcus aureus [9]): 2 µg/mL (≈ 1.84 µM) | MIC (Staphylococcus aureus [10]): 4 µg/mL (≈ 3.68 µM) | MIC (Staphylococcus aureus [11]): 2 µg/mL (≈ 1.84 µM)
